{
  "source": "paper PMC8236048",
  "about": "“Pharmaceutical design of a delivery system for the bacteriocin lacticin 3147” (Drug Delivery and Translational Research, 2021)",
  "key": {"[1]": {"target": "T1, pepsin (Sus scrofa, UniProt P00791)", "T1 construct": "purchased Sigma-Aldrich Ireland Ltd", "T1 sequence (P00791 60-385)": "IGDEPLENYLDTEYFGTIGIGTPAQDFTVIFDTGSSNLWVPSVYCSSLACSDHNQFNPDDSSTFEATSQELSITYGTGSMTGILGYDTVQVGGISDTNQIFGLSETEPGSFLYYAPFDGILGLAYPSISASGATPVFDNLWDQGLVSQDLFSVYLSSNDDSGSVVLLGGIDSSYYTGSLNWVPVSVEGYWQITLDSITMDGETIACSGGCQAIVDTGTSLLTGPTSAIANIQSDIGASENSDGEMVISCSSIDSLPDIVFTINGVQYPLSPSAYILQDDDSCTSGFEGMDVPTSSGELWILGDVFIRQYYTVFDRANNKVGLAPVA", "test": "Enzyme degradation of lacticin 3147 by pepsin (activity, MALDI-TOF, RP-HPLC)", "assay_type": "in vitro ADME", "details": "25 mg/ml pepsin, 3 h, 37 °C, pH 2.29; then growth curve at 400 nM peptides", "experimental": "Lacticin 3147 production was confirmed by matrix-assisted laser desorption ionization-time of flight (MALDI-TOF) mass spectrometry using sinapinic acid as the matrix. About 0.7 μl of the matrix solution (sinapinic acid, 4 mg/ml in 50% acetone/50% methanol) was added to the target plate and left to evaporate (30 s) at ambient conditions. Individual peptides (Ltnα or Ltnβ) were resuspended in 70% IPA and mixed at a 1:1 volume ratio with a 10-mg/ml stock solution of sinapinic acid in 60% ACN with 0.1% TFA. About 0.3 μl of this peptide-matrix solution was then added to the matrix layer previously applied to the plate and evaporated at ambient conditions. The plate was inserted into a MALDI-TOF Ultraflex mass spectrometer (Bruker) and analysed using reflectron positive 700–3500 Da mode. 100 shots were fired at 88% intensity. This method was also used for the analyses of samples from the enzyme degradation studies.\nAll lacticin 3147 samples were filtered through a 0.2-µm PES filter before analysis by RP-HPLC using an Agilent 1200 Infinity Series HPLC (Agilent Technologies, USA). The HPLC separations were carried out on an Aeris 3.6 µm Peptide 100 Å 250 × 4.6 mm, liquid chromatography column with a flow rate of 0.8 ml/min, and with 0.1% trifluoroacetic acid (TFA) in water as aqueous phase-A and 0.1% TFA in acetonitrile (ACN) as organic phase-B. The total run time was 51 min. The mobile phase started with 30:70 A:B for 3 min and change linearly to 35:65 A:B over 30 min. The organic phase was then adjusted to 100% within 1 min and continued to flow for 5 min. After this, the mobile phase returned to the initial ratio to stabilize the chromatographic system. The detector was set at 214 nm. The peak area (mAU) was plotted against the concentration (1.56–500 µg/ml) to make a calibration curve. The coefficients of determination (R^2 values) were 0.9963 and 0.9983 for Ltnα and Ltnβ respectively. This method was subsequently used for quantitative analysis of Ltnα and Ltnβ.\nTrypsin and α-chymotrypsin stock solutions (50 mg/ml) were resuspended in water. Pepsin (50 mg/ml) was resuspended in 0.02 M HCL. About 1 mg/ml individual solutions of Ltnα and Ltnβ in 70% IPA were filtered and diluted (1 in 20) in sterile PBS to give a final peptide concentration of 50 µg/ml. After this, 5.3 µl Ltnα and 4.6 µl Ltnβ were added to the same well of a 96-well plate. The pH of the lacticin 3147-pepsin solution was 2.29. Control wells consisting of Ltnα and Ltnβ together, Ltnα alone, and Ltnβ alone with no enzyme were included. The 96-well plate was incubated for 3 h at 37 °C to allow the enzyme to act. After incubation, the wells were filled to 50 μl with PBS and 150 μl of diluted bacterial cell culture (L. monocytogenes at an OD of 0.1) was added to each well. The final peptide concentration of 400 nM (1.31 µg/ml Ltnα, 1.14 µg/ml Ltnβ) was obtained when the wells were filled to 200 µl. Blanks were set up in triplicate with media only and PBS only. The three control wells were also set up with bacterial culture and each enzyme only. […] The effect of the proteases pepsin, α-chymotrypsin, and trypsin on the lacticin 3147 peptides was determined by MALDI-TOF mass spectrometry. […] After 3 h, 1 µl was removed from each sample and it was analysed by MALDI-TOF mass spectrometry. […]\nPepsin’s effect on lacticin 3147 was also investigated by RP-HPLC. […] After incubation, aliquots were taken, filtered, and analysed by RP-HPLC to determine if pepsin degrades Ltnα or Ltnβ to any extent."}, "[2]": {"test_system": "L. monocytogenes", "details": "cited from earlier work", "excerpt": "(§1) Approximately 223,900 C. difficile infections and 12,800 resulting deaths were reported in the USA in 2017 [17]. Treatment failures and recurrences of infection after the use of antibiotics are increasingly common, with a 2–38% failure rate for vancomycin and 8–50% for metronidazole. A more virulent strain of C. d ..."}, "[3]": {"test_system": "methicillin-resistant S. aureus (MRSA)", "details": "cited from earlier work", "excerpt": "as §1"}, "[4]": {"test_system": "eukaryotic cells", "details": "cited from earlier work", "excerpt": "as §1"}, "[5]": {"test_system": "C. difficile", "details": "antimicrobial-resistant bacteria; cited from earlier work", "excerpt": "as §1"}},
  "data": [
    {"substance": "lacticin 3147", "values": [
      {"measurement": "activity against L. monocytogenes ATCC 1916 after incubation with pepsin", "setting": "[1]", "value": "remains active"},
      {"measurement": "activity against L. monocytogenes", "setting": "[2]", "value": "active at nanomolar concentrations"},
      {"measurement": "activity against methicillin-resistant S. aureus (MRSA)", "setting": "[3]", "value": "active at nanomolar concentrations"},
      {"measurement": "toxicity to eukaryotic cells", "setting": "[4]", "value": "non-toxic"},
      {"measurement": "activity against C. difficile", "setting": "[5]", "value": "active at nanomolar concentrations"}
    ]}
  ]
}
